Columns and labels:
[1] = target: human TASK-1 (hTASK-1, hK2P3.1) (Homo sapiens, UniProt O14649); experiment: two-electrode voltage clamp in Xenopus oocytes at […]; type: cell-based; conditions: read-out: % of control current at 100 μmol/L
porcine TASK-1 (pTASK-1) = porcine TASK-1 (pTASK-1) (Sus scrofa, UniProt A0A286ZMZ4); experiment: as above; type: cell-based; conditions: read-out: % of control current at 100 μmol/L
porcine TASK-1 (pTASK-1), sequence (A0A286ZMZ4 1-401): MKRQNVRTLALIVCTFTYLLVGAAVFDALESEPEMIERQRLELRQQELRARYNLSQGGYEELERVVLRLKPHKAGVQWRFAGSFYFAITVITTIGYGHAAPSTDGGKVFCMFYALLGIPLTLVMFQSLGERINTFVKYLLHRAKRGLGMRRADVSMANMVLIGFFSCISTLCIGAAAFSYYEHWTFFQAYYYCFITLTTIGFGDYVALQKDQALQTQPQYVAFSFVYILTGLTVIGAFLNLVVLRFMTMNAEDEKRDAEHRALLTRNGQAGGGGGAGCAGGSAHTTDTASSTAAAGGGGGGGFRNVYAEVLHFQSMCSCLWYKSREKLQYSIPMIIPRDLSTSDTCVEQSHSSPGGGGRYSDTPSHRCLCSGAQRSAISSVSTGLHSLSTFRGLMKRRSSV

human TASK-1 (hTASK-1, hK2P3.1), sequence (O14649 whole entry): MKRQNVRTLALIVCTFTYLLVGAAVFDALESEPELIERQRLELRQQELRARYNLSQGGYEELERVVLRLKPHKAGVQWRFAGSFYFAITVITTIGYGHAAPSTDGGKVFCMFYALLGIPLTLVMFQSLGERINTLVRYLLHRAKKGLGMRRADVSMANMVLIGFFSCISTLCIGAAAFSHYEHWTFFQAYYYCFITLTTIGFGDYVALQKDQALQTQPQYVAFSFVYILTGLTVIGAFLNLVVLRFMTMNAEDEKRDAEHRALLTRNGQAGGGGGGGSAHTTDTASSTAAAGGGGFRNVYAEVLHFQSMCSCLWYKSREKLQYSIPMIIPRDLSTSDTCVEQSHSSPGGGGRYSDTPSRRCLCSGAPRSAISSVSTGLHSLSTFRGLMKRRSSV

- remaining activity at 100 µM [1]: 21.3 ± 8.7%
- remaining activity at 100 µM (porcine TASK-1 (pTASK-1)): 28 ± 6.8%
Compound: CCCCS(=O)(=O)Nc1ccccc1C(=O)N[C@H](CC)c1ccc(OC)nc1 [A293, 2‐(butylsulfonylamino)‐N‐[(1R)‐1‐(6‐methoxy‐3‐pyridyl)propyl]‐benzamide]

— PMC7660874 (Journal of the American Heart Association: Cardiovascular …, 2020)
